In brackets after ≈: the same amount, converted by molar mass. Some results are limits rather than exact numbers.

The conditions of the data set: buffer; pH 7.4; 200.0 µM.
By kinetic solubility is commonly meant the concentration staying in solution when a stock, usually in DMSO, is diluted into the medium. As for `Cc1cccc(OCC(=O)Nc2ccc3nc(C)sc3c2)c1`, the kinetic solubility turned out to be 1.8 µg/mL (≈ 5.76 µM).
As for `COc1ccc(NC(=O)c2c(N)no[n+]2[O-])c(OC)c1`, the solubility (kinetic) stood at 1.5 µg/mL (≈ 5.35 µM).
The same measure for `O=C(CCCCl)NC(=S)Nc1ccc(N2CCOCC2)cc1`: 11.4 µg/mL (≈ 33.3 µM).
Regarding `C=CCn1c(N2CCCC2)nc2c1c(=O)n(C)c(=O)n2C`, the kinetic solubility was greater than 43.4 µg/mL.
Take `O=C(NC(=S)NC1CCCCC1)c1ccc(F)cc1`: the kinetic solubility was found to be 2.1 µg/mL (≈ 7.49 µM).
The same measure for `Cc1cc(Cl)nc(-c2ccccc2O)n1`: less than 0.2 µg/mL; for `Cc1ccc(C(=O)NCCCNC(=O)c2ccccc2F)cn1`: 44.1 µg/mL (≈ 140 µM); for `CCCC(=O)Nc1ccc(S(=O)(=O)Nc2cc(OC)ncn2)cc1`: greater than 52.6 µg/mL.
The same measure for `NS(=O)(=O)c1ccc(NC(=O)COC(=O)c2ccco2)cc1`: 30 µg/mL (≈ 92.5 µM).
`O=C(NCc1ccco1)C(=O)N1CCCC1` yielded a kinetic solubility greater than 33.3 µg/mL.
`CC1C(=O)Nc2ccccc2N1C(=O)c1ccc(O)cc1` (configuration not stated) gave a solubility (kinetic) greater than 42.3 µg/mL.
The same measure for `CCN(C(=O)COC(=O)CNC(=O)c1ccc(Cl)cc1Cl)c1c(N)n(Cc2ccccc2)c(=O)[nH]c1=O`: greater than 82.3 µg/mL; for `Cc1ccccc1C(=O)NNC(=O)c1cccn1C`: greater than 38.6 µg/mL; for `O=S(=O)(NCCCN1CCOCC1)c1ccc(Cl)cc1`: greater than 47.8 µg/mL.
Then `CN(C)CCOC(=O)CCCCCCCCC(=O)OCCN(C)C.Cl`, with greater than 62.6 µg/mL; and `CSc1nc(N(C)C)nc(N(C)C#N)n1`, with greater than 33.6 µg/mL; and `O=C(Nc1ccc(CN2CCOCC2)cc1)c1ccc(Cl)cc1`, with 9.2 µg/mL (≈ 27.8 µM).
Then `CC(C)(CNC(=O)c1cccs1)N1CCOCC1`, with greater than 40.3 µg/mL; and `O=C(O)c1cc(S(=O)(=O)NCC2COc3ccccc3O2)ccc1Cl` (configuration not stated), with greater than 57.6 µg/mL; and `Cc1ccc(NC(=O)CCNC(=O)c2ccco2)cc1F`, with greater than 43.5 µg/mL.
In turn, `O=C(Nc1cccc(C(=O)O)c1)Nc1ccc2c(c1)OCO2` showed a solubility (kinetic) greater than 45 µg/mL.
The same measure for `CN(C)C(=S)Nc1cccc(C(F)(F)F)c1`: 29.7 µg/mL (≈ 120 µM).
Then `O=C1CCC([N+](=O)[O-])C(c2cccc3ccccc23)N1` (configuration not stated), with greater than 40.5 µg/mL; and `CC(O)c1nc2ccccc2n1CCCOc1ccccc1` (configuration not stated), with greater than 44.5 µg/mL; and `Cc1ccc(S(=O)(=O)/N=C/c2c(O)ccc3ccccc23)cc1`, with 30.8 µg/mL (≈ 94.7 µM).
The same measure for `Cc1ccc(CNC(=O)CN2C(=O)NC3(CCCC3)C2=O)cc1`: 43.6 µg/mL (≈ 138 µM); for `Cc1ccc(NC(=O)CN(C)C(=O)COc2ccccc2-c2ccccc2)cc1`: 11.1 µg/mL (≈ 28.6 µM); for `Cc1ccc2c(c1)[nH]c1c(=O)n(Cc3ccco3)cnc12`: 0.5 µg/mL (≈ 1.79 µM).
Compound `NC(=O)c1ccc(Oc2ccc3c(c2)CCC3)c([N+](=O)[O-])c1` yielded a kinetic solubility of 5.4 µg/mL (≈ 18.1 µM).
For `Cc1cccc(OCCOC(=O)c2c(-c3ccccc3)noc2C)c1`, the solubility (kinetic) is 1.1 µg/mL (≈ 3.26 µM).
Then `COc1ccc(C(=O)N2CCc3cc4c(cc3C2C)OCCCO4)cc1` (configuration not stated), with greater than 53 µg/mL.
`O=C(Nc1ccc(N2CCOCC2)cc1)c1ccc2ncsc2c1` returned a kinetic solubility of 10.1 µg/mL (≈ 29.8 µM).
Then `Cc1ccc(NC(=O)CCN2C(=O)NC(C)(C)C2=O)cc1F`, with greater than 46.1 µg/mL.
`Cc1c2n(c3ccccc13)CCC2=O` registered a solubility (kinetic) of 14.1 µg/mL (≈ 76.1 µM).
The same measure for `COc1ccc(C(=O)NCCSCc2cccc(Cl)c2)cc1OC`: 6.3 µg/mL (≈ 17.2 µM); for `O=C(CC(c1ccccc1)c1cc(Cl)ccc1O)N1CCCC1` (configuration not stated): greater than 49.5 µg/mL.
The same measure for `CC1CN(C(=S)Nc2cccc(Cl)c2Cl)CC(C)O1` (configuration not stated): 18.9 µg/mL (≈ 59.2 µM).
The same measure for `CCOC(=O)c1ccc(NC(=O)C2CC(O)CN2S(=O)(=O)c2ccc(C)cc2)cc1` (configuration not stated): greater than 64.9 µg/mL; for `O=C(Nc1ccc(F)cc1)Nc1cnccn1`: 27.9 µg/mL (≈ 120 µM); for `COC(=O)C(NC(C)=O)(Nc1ccc(C)cn1)C(F)(F)F` (configuration not stated): greater than 45.8 µg/mL.
As to `O=C(/C=C/c1ccc([N+](=O)[O-])cc1)/C=C/c1ccco1`, the kinetic solubility is 3.1 µg/mL (≈ 11.5 µM).
`Cc1ccc(SC(C)C(=O)NCc2ccc(F)cc2)cc1` (configuration not stated) yielded a kinetic solubility of 8.2 µg/mL (≈ 27 µM).
`COc1ccc(CNC(=O)Cc2cccs2)cc1` showed a solubility (kinetic) of 26.9 µg/mL (≈ 103 µM).
With `CC(NC(=O)OCc1ccccc1)c1ccccc1` (configuration not stated), the solubility (kinetic) was greater than 38.3 µg/mL.
Regarding `COc1ccccc1-n1ccnc(SCC(=O)NC2CCCC2)c1=O`, the solubility (kinetic) was greater than 53.9 µg/mL.
On to `CC1C(Br)C(=O)NC(=O)N1Cc1ccccc1` (configuration not stated), for which the solubility (kinetic) was determined as 41.4 µg/mL (≈ 139 µM).
On to `CC(=O)Nc1ccc(NC(=O)Nc2cccc3ccccc23)cc1`, for which the solubility (kinetic) amounted to 1.1 µg/mL (≈ 3.44 µM).
`CC(C)c1cc(O)c(-c2ccccc2)c(=O)n1-c1ccc(Cl)cc1` yielded a kinetic solubility of less than 0.7 µg/mL.
The same measure for `COc1ccccc1C(C)NC(=O)CCNC(=O)c1ccc(Cl)cc1` (configuration not stated): 4.5 µg/mL (≈ 12.5 µM); for `CC(C(=O)NCC1CCCCC1)N(C)Cc1ccc(Cl)cc1` (configuration not stated): 19.5 µg/mL (≈ 60.4 µM); for `O=C(OCC(=O)N1CCCC1)c1c(Cl)ccc(Cl)c1Cl`: 39 µg/mL (≈ 116 µM).
`CC12COC3(C(=O)Nc4ccccc4F)CC1CCC32C` (configuration not stated) showed a kinetic solubility of 9.1 µg/mL (≈ 31.4 µM).
Then `Cc1ccc(C(=O)OCC(=O)N2CCCCCC2)c(O)c1`, with 14 µg/mL (≈ 48.1 µM); and `O=C(CCCN1CC=C(n2c(=O)[nH]c3ccccc32)CC1)c1ccc(F)cc1`, with 33.4 µg/mL (≈ 88 µM); and `CCN(CC)c1cc(Cl)nc(N)n1`, with 25.9 µg/mL (≈ 129 µM).
Regarding `O=C(COC(=O)c1ccc([N+](=O)[O-])o1)Nc1ccc2c(c1)OCO2`, the solubility (kinetic) was 16.9 µg/mL (≈ 50.6 µM).
`Cn1c(SCc2ccccc2)nc2c1c(=O)[nH]c(=O)n2C` registered a kinetic solubility of 7 µg/mL (≈ 23.2 µM).
The compound `Cc1ccc2nc(-c3ccncc3)cc(C(=O)N3CCOCC3)c2c1` came in with a kinetic solubility greater than 50 µg/mL.
The same measure for `O=C(OCC(=O)N1CCCCC1)c1cc(=O)[nH]c2ccccc12`: greater than 47.2 µg/mL; for `CCOC(=O)[C@H](CCc1ccccc1)N[C@H]1CCc2ccccc2N(CC(=O)O)C1=O.Cl`: greater than 69.1 µg/mL; for `CN(C)/C(=N\O)c1c(Cl)cccc1Cl`: greater than 35 µg/mL.
`CC(C)(CO)Nc1ncnc2onc(-c3ccc(F)cc3)c12` gave a kinetic solubility greater than 45.3 µg/mL.
`CC(C)(C)NC(=O)NCCc1ccccc1` came in with a kinetic solubility of 30 µg/mL (≈ 136 µM).
Then `CN1C(=O)C(=O)/C(=C(/O)c2ccccc2)C1c1ccccc1` (configuration not stated), with greater than 44 µg/mL; and `CS(=O)(=O)Nc1ccc(C(=O)Nc2ccc3c(c2)OCO3)cc1`, with 6.2 µg/mL (≈ 18.5 µM); and `CCN(CC)S(=O)(=O)c1cc(NC(=S)NC(=O)C2CCCC2)ccc1C`, with 6.1 µg/mL (≈ 15.3 µM).
`COC(=O)c1cc(OC)c(OC)cc1NC(=O)CSCc1c(C)noc1C`: the kinetic solubility stood at 15.6 µg/mL (≈ 39.5 µM).
Consider `Cc1ccc(S(=O)(=O)/N=C2\C=C(Nc3ccc(O)cc3)C(=O)c3ccccc32)cc1`, for which the kinetic solubility amounted to 0.9 µg/mL (≈ 2.15 µM).
Compound `C=CCn1c(O)c(C(CC)=NCc2ccco2)c(=O)[nH]c1=O` yielded a kinetic solubility greater than 45.5 µg/mL.
Then `COc1cccc(-c2nc(NC3CCCC3)c3ccccc3n2)c1O`, with less than 0.2 µg/mL; and `CCCCCn1c(N)c(C(=O)NCc2cccs2)c2nc3ccccc3nc21`, with 0.9 µg/mL (≈ 2.29 µM); and `CCOC(=O)c1ccc(NCCOC)c([N+](=O)[O-])c1`, with 33.2 µg/mL (≈ 124 µM).
Consider `Cc1ccc2nc(-c3ccccc3C)oc(=O)c2c1`, for which the kinetic solubility is less than 0.5 µg/mL.
Then `O=C(c1c[nH]c2ccccc12)N1CCN(c2ccccc2)CC1`, with greater than 45.8 µg/mL; and `O=S(=O)(c1ccc(Cl)nc1)N1CCCCC1`, with greater than 39.1 µg/mL.
The same measure for `COc1ccc(OC)c(NC(=O)CCNC(=O)c2ccco2)c1`: 44.7 µg/mL (≈ 140 µM); for `COc1ccccc1CCC(=O)Oc1ccccc1C#N`: 16.6 µg/mL (≈ 59 µM).
On to `O=C(Cc1ccccc1)N1CCN(CCCc2ccccc2)CC1.O=C(O)C(=O)O`, for which the kinetic solubility is greater than 61.9 µg/mL.
The same measure for `O=C(COC(=O)c1cc[n+]([O-])cc1)NCc1ccccc1Cl`: greater than 48.1 µg/mL; for `OCCC1CN(Cc2ccon2)CCN1Cc1ccc(F)c(F)c1` (configuration not stated): 40.7 µg/mL (≈ 121 µM); for `O=S(=O)(c1c(Cl)cc(Br)cc1Cl)N1CCN(C(=S)NC2CC2)CC1`: 5.3 µg/mL (≈ 11.2 µM).
Compound `O=C(CNC(=O)c1ccc(Br)o1)NCCc1ccc(F)cc1` showed a kinetic solubility of 39.8 µg/mL (≈ 108 µM).
Regarding `CCCn1c(SCC(=O)NC)nc2sc3c(c2c1=O)CCC3`, the kinetic solubility is 5.5 µg/mL (≈ 16.3 µM).
In the case of `CN(CCC#N)C(=O)COc1ccc(Br)cc1Cl`, the kinetic solubility is greater than 49.7 µg/mL.
Then `Cc1ccc(C(=O)CSc2nnc3n2CCCCC3)s1`, with greater than 46.1 µg/mL; and `CCOC(=O)c1ccc(NC(=S)NCc2ccc(F)cc2)cc1`, with 2.2 µg/mL (≈ 6.62 µM).
Compound `O=C(Nc1ccc(CN2CCS(=O)(=O)CC2)cc1)c1ccc(Cl)cc1` returned a solubility (kinetic) of 4.6 µg/mL (≈ 12.1 µM).
As to `COc1ccc(S(=O)(=O)N2CCOCC2)cc1NC(=O)CCCOc1ccccc1`, the kinetic solubility stood at 40.9 µg/mL (≈ 94.1 µM).
With `O=C(OCC(=O)N1CCCC1=O)c1nc(Cl)c(Cl)c(Cl)c1Cl`, the solubility (kinetic) is 32.9 µg/mL (≈ 85.2 µM).
Then `COc1ccc(NC(=O)C(=O)Nc2cccc3ccccc23)c(OC)c1`, with less than 0.4 µg/mL.
Compound `O=C(CS(=O)(=O)c1ccc(F)cc1)NCc1ccccc1` registered a kinetic solubility of 16.2 µg/mL (≈ 52.7 µM).
The same measure for `Cc1cccc(OCCn2c(=O)oc3ccc(C)cc32)c1`: 3.8 µg/mL (≈ 13.4 µM).
Then `Cc1ccc(NC(=S)NC(=O)c2cccs2)cc1F`, with 1.6 µg/mL (≈ 5.44 µM).
The same measure for `O=C1c2cccc3cccc(c23)C(=O)N1Cc1ccccc1`: less than 0.6 µg/mL; for `CCn1c(=O)c(C(=O)Nc2ccc(C)cc2)c(O)c2ccccc21`: less than 0.3 µg/mL.
Regarding `Cc1cc(=O)oc2c(CN3CCCC3)c(O)ccc12`, the kinetic solubility was greater than 38.9 µg/mL.
The same measure for `O=c1[nH]cc(COCC(F)CCl)c(=O)[nH]1` (configuration not stated): greater than 35.5 µg/mL.
Take `CSc1ncc(Cl)c(C(=O)Nc2cccc(Cl)c2)n1`: the solubility (kinetic) came out at 1.1 µg/mL (≈ 3.5 µM).
Then `COc1ccc(C(=O)NCC(=O)OCC(=O)c2c(C)[nH]c3ccccc23)cc1OC`, with 6.1 µg/mL (≈ 14.9 µM); and `Cc1cccc(NC(=O)c2ccc(S(=O)(=O)N3CCOCC3)cc2)n1`, with 48.2 µg/mL (≈ 133 µM); and `OCCc1c[nH]c2ccc(OCc3ccccc3)cc12`, with 24.8 µg/mL (≈ 92.8 µM).
The same measure for `COc1cccc(N2CCN(c3nc(C)c(C)c(=O)[nH]3)CC2)c1`: 25.9 µg/mL (≈ 82.4 µM).

For the origin of these results see PubChem BioAssay AID1996.
